{"source": "paper PMC4966929", "about": "“Two Distinct Cardiolipin Synthases Operate in Agrobacterium tumefaciens” (PLoS ONE, 2016)", "target": "T1, Cls2 (Agrobacterium fabrum, UniProt A9CHR9)", "T1 construct": "gene cls; native full-length enzyme in A. tumefaciens crude extract (wild type and delta-cls1 lysates, assigned by loss in delta-cls2); about 54 kDa, not purified, no tag", "T1 sequence (A9CHR9 1-486)": "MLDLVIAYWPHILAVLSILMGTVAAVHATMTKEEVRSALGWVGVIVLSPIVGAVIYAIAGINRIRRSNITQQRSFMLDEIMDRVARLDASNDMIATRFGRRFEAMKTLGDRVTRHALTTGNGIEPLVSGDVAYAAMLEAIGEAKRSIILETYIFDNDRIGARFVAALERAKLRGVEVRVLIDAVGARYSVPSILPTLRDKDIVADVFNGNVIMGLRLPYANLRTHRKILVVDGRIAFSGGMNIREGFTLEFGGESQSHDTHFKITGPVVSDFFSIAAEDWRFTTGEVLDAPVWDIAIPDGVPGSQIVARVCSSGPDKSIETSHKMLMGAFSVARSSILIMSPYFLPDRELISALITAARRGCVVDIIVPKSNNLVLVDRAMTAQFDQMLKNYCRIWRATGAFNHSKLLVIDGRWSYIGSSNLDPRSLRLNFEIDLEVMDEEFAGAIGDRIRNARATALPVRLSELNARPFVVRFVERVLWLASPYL", "experiment": "CL formation in crude extract of wild type and cls deletion strains, lipid extraction, 1D-TLC", "format": "biochemical", "details": "0.4 mM lipid in micellar form, 0.02% Triton X-100, 50 mM Tris/HCl, 50 mM NaCl, pH 8, 30 C, 12 h; 300 ug total protein"}
{"compound": "CCCCCCCC/C=C\\CCCCCCCC(=O)OC[C@H](COP(=O)(O)OCC(O)CO)OC(=O)CCCCCCC/C=C\\CCCCCCCC", "note": "(mixture of isomers) [PG, 1,2-dioleoyl-sn-glycero-3-phospho-rac-(1-glycerol)]", "values": [{"measurement": "CL formation in crude extract of wild type and cls deletion strains, lipid extra", "value": "suggesting that PG-dependent CL accumulation is mediated by Cls2"}]}
